# According to patent publication US20230365546A1, “5-SUBSTITUTED INDOLE 3-AMIDE DERIVATIVES, PREPARATION METHOD AND USE THEREOF” (ORIGIANT PHARMACEUTICAL CO., LTD, priority 2020, published 2023):
# Experiments:
# RIPK1 = RIPK1 (Homo sapiens (Human), UniProt Q13546); assay: In vitro kinase assay (Eurofins Kinase Profiler), IC50; assay type: biochemical; details: 0.001-10 μM, read-out: RIPK 1 (IC50)
# HT-29 cells = assay: Protection against programmed necrosis of HT-29 cells (TNF α/Smac mimetic/Z-VAD-FMK, CCK8); assay type: cell-based; details: Homo sapiens, TNF α/Smac mimetic/Z-VAD-FMK induced 24 h, CCK8, read-out: HT-29 (EC50)
# Description: In vitro protection against programmed necrosis of HT-29 cells was conducted by ourselves.
# DMEM medium was purchased from Gibco Inc., penicillin and streptomycin were purchased from HyClone Inc., TNF α was purchased from PeproTech Inc., Smac mimetic and Z-VAD-FMK were purchased from Selleck Inc., CCK8 was purchased from Medchem Express Inc.
# HT-29 cells (colon cancer cells) were cultured in DMEM+10% FBS+Penicillin/Streptomycin medium. During the experiments, HT-29 cells in logarithmic growth phase were harvested, seeded in a 96-well plate at specific numbers per well (typically 8×10^3 cells/well of adherent cells) and cultured overnight in a 37° C., 5% CO2 cell culture incubator. The next day, the compounds to be tested were diluted with culture medium to the corresponding concentrations and added into the corresponding wells of a 96-well plate, with 3 replicate wells for each sample, and a Vehicle control group and a blank Control group containing only culture medium were set at the same time. […] The absorbance was measured at 495 nm wavelength using a microplate reader, and the protection rate of the drug on the cells necrosis was calculated according to the following formula:
# Protection rate of cell necrosis=[(X−C0)/(C−C0)]×100%
# Wherein, C, C0, and X represent the mean absorbance values of the Vehicle control group, Blank control group and Drug treatment group, respectively.
# RIPK1, sequence (Q13546 whole entry): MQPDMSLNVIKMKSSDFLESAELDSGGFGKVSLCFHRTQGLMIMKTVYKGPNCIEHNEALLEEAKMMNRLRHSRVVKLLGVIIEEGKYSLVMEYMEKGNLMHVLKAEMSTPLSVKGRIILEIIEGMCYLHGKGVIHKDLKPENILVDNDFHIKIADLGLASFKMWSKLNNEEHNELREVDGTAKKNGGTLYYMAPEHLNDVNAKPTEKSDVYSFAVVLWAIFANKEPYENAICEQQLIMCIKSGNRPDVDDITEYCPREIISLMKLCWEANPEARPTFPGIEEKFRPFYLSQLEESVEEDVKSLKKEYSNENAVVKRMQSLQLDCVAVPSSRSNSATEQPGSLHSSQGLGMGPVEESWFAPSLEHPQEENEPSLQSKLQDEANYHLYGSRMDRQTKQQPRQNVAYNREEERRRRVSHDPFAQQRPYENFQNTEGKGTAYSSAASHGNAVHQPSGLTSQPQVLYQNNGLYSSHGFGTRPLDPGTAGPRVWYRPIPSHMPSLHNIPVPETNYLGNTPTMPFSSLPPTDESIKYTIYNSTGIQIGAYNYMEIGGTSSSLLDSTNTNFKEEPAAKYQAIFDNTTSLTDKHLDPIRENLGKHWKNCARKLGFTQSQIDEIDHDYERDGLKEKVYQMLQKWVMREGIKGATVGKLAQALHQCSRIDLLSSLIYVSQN
IC50 (RIPK1),SMILES,EC50 (HT-29 cells)
10 to 100 nM,O=C(NCc1cccc(F)c1)c1c[nH]c2ccc(-c3ccc4nc(NC(=O)C5CC5)sc4c3)cc12 [Compound 4],10 to 100 nM
100 to 1000 nM,O=C(NCc1ccc(F)cc1)c1c[nH]c2ccc(-c3ccc4nc(NC(=O)C5CC5)sc4c3)cc12 [Compound 6],10 to 100 nM
10 to 100 nM,O=C(NCc1cccc(C(F)(F)F)c1)c1c[nH]c2ccc(-c3ccc4nc(NC(=O)C5CC5)sc4c3)cc12 [Compound 8],1 to 10 nM
10 to 100 nM,O=C(NCc1ccc(F)cc1F)c1c[nH]c2ccc(-c3ccc4nc(NC(=O)C5CC5)sc4c3)cc12 [Compound 9],1 to 10 nM
100 to 1000 nM,COc1cccc(CNC(=O)c2c[nH]c3ccc(-c4ccc5nc(NC(=O)C6CC6)sc5c4)cc23)c1 [Compound 12],≥ 1000 nM
10 to 100 nM,Cc1cccc(CNC(=O)c2c[nH]c3ccc(-c4ccc5nc(NC(=O)C6CC6)sc5c4)cc23)c1 [Compound 15],10 to 100 nM
10 to 100 nM,O=C(NCc1ccccc1F)c1c[nH]c2ccc(-c3ccc4nc(NC(=O)C5CC5)sc4c3)cc12 [Compound 21],1 to 10 nM
10 to 100 nM,O=C(NCc1cccc(Cl)c1)c1c[nH]c2ccc(-c3ccc4nc(NC(=O)C5CC5)sc4c3)cc12 [Compound 22],1 to 10 nM
100 to 1000 nM,O=C(NCc1cccc(Br)c1)c1c[nH]c2ccc(-c3ccc4nc(NC(=O)C5CC5)sc4c3)cc12 [Compound 23],1 to 10 nM
10 to 100 nM,O=C(NCc1cc(F)ccc1F)c1c[nH]c2ccc(-c3ccc4nc(NC(=O)C5CC5)sc4c3)cc12 [Compound 25],< 1 nM
100 to 1000 nM,CC(C)c1ccc(CNC(=O)c2c[nH]c3ccc(-c4ccc5nc(NC(=O)C6CC6)sc5c4)cc23)cc1 [Compound 28],≥ 1000 nM
10 to 100 nM,C[C@H](NC(=O)c1c[nH]c2ccc(-c3ccc4nc(NC(=O)C5CC5)sc4c3)cc12)c1ccc(F)cc1 [Compound 30],< 1 nM
100 to 1000 nM,C[C@@H](NC(=O)c1c[nH]c2ccc(-c3ccc4nc(NC(=O)C5CC5)sc4c3)cc12)c1ccc(F)cc1 [Compound 31],100 to 1000 nM
10 to 100 nM,COc1ccc([C@@H](C)NC(=O)c2c[nH]c3ccc(-c4ccc5nc(NC(=O)C6CC6)sc5c4)cc23)cc1 [Compound 32],1 to 10 nM
10 to 100 nM,COc1ccc([C@H](C)NC(=O)c2c[nH]c3ccc(-c4ccc5nc(NC(=O)C6CC6)sc5c4)cc23)cc1 [Compound 33],< 1 nM
100 to 1000 nM,C[C@@H](NC(=O)c1c[nH]c2ccc(-c3ccc4nc(NC(=O)C5CC5)sc4c3)cc12)c1cccc(F)c1 [Compound 35],10 to 100 nM

IC50 (RIPK1),SMILES,EC50 (HT-29 cells)
100 to 1000 nM,C[C@@H](NC(=O)c1c[nH]c2ccc(-c3ccc4nc(NC(=O)C5CC5)sc4c3)cc12)c1cccc(Cl)c1 [Compound 36],100 to 1000 nM
10 to 100 nM,C[C@H](NC(=O)c1c[nH]c2ccc(-c3ccc4nc(NC(=O)C5CC5)sc4c3)cc12)c1cccc(Cl)c1 [Compound 37],1 to 10 nM
10 to 100 nM,COc1cccc([C@H](C)NC(=O)c2c[nH]c3ccc(-c4ccc5nc(NC(=O)C6CC6)sc5c4)cc23)c1 [Compound 38],1 to 10 nM
100 to 1000 nM,COc1cccc([C@@H](C)NC(=O)c2c[nH]c3ccc(-c4ccc5nc(NC(=O)C6CC6)sc5c4)cc23)c1 [Compound 39],10 to 100 nM
100 to 1000 nM,C[C@H](NC(=O)c1c[nH]c2ccc(-c3ccc4sc(NC(=O)C5CC5)nc4c3)cc12)c1cccc(F)c1 [Compound 40],10 to 100 nM
100 to 1000 nM,C[C@H](NC(=O)c1c[nH]c2ccc(-c3ccc(NC(=O)C4CC4)nc3)cc12)c1cccc(F)c1 [Compound 41],100 to 1000 nM
100 to 1000 nM,C[C@H](NC(=O)c1c[nH]c2ccc(-c3ccc(NC(=O)C4CC4)cc3)cc12)c1cccc(F)c1 [Compound 42],≥ 1000 nM
100 to 1000 nM,C[C@H](NC(=O)c1c[nH]c2ccc(-c3ccc4nc(NC(=O)C5CC5)ncc4c3)cc12)c1cccc(F)c1 [Compound 44],10 to 100 nM
10 to 100 nM,C[C@H](NC(=O)c1c[nH]c2ccc(-c3ccc4nc(NC(=O)C5CC5)nn4c3)cc12)c1cccc(F)c1 [Compound 45],10 to 100 nM
10 to 100 nM,C[C@H](NC(=O)c1c[nH]c2ccc(-c3ccc4nc(NC(=O)C5CCC5)sc4c3)cc12)c1cccc(F)c1 [Compound 47],1 to 10 nM
10 to 100 nM,C[C@H](NC(=O)c1c[nH]c2ccc(-c3ccc4nc(NC(=O)C5CCCC5)sc4c3)cc12)c1cccc(F)c1 [Compound 48],1 to 10 nM
10 to 100 nM,C[C@H](NC(=O)c1c[nH]c2ccc(-c3ccc4nc(NC(=O)C5CCCCC5)sc4c3)cc12)c1cccc(F)c1 [Compound 49],10 to 100 nM
10 to 100 nM,C[C@H](NC(=O)c1c[nH]c2ccc(-c3ccc4nc(NC(=O)C(C)(C)C)sc4c3)cc12)c1cccc(F)c1 [Compound 50],10 to 100 nM
10 to 100 nM,C[C@H](NC(=O)c1c[nH]c2ccc(-c3ccc4nc(NC(=O)C5CCOCC5)sc4c3)cc12)c1cccc(F)c1 [Compound 51],10 to 100 nM
100 to 1000 nM,C[C@H](NC(=O)c1c[nH]c2ccc(-c3ccc4nc(NC(=O)C(F)(F)F)sc4c3)cc12)c1cccc(F)c1 [Compound 52],10 to 100 nM
100 to 1000 nM,C[C@H](NC(=O)c1c[nH]c2ccc(-c3ccc4nc(NC(=O)C5CCN(C)CC5)sc4c3)cc12)c1cccc(F)c1 [Compound 53],100 to 1000 nM

# Second part, the molecule before the results:
SMILES,IC50 (RIPK1),EC50 (HT-29 cells)
COc1ccc(CNC(=O)c2c[nH]c3ccc(-c4ccc5nc(NC(=O)C6CC6)sc5c4)cc23)cc1 [Compound 1],10 to 100 nM,10 to 100 nM
O=C(NCc1ccc(F)c(F)c1)c1c[nH]c2ccc(-c3ccc4nc(NC(=O)C5CC5)sc4c3)cc12 [Compound 2],10 to 100 nM,100 to 1000 nM
O=C(NCc1cc(F)cc(F)c1)c1c[nH]c2ccc(-c3ccc4nc(NC(=O)C5CC5)sc4c3)cc12 [Compound 3],10 to 100 nM,10 to 100 nM
O=C(NCc1cc(C(F)(F)F)cc(C(F)(F)F)c1)c1c[nH]c2ccc(-c3ccc4nc(NC(=O)C5CC5)sc4c3)cc12 [Compound 5],100 to 1000 nM,≥ 1000 nM
N#Cc1ccc(CNC(=O)c2c[nH]c3ccc(-c4ccc5nc(NC(=O)C6CC6)sc5c4)cc23)cc1 [Compound 7],10 to 100 nM,10 to 100 nM
O=C(NCc1cccc([N+](=O)[O-])c1)c1c[nH]c2ccc(-c3ccc4nc(NC(=O)C5CC5)sc4c3)cc12 [Compound 10],100 to 1000 nM,100 to 1000 nM
COc1cc(CNC(=O)c2c[nH]c3ccc(-c4ccc5nc(NC(=O)C6CC6)sc5c4)cc23)cc(OC)c1 [Compound 11],100 to 1000 nM,≥ 1000 nM
Cc1ccc(CNC(=O)c2c[nH]c3ccc(-c4ccc5nc(NC(=O)C6CC6)sc5c4)cc23)cc1 [Compound 13],10 to 100 nM,1 to 10 nM
O=C(NCc1cccc2ccccc12)c1c[nH]c2ccc(-c3ccc4nc(NC(=O)C5CC5)sc4c3)cc12 [Compound 14],≥ 1000 nM,≥ 1000 nM
O=C(NCc1ccc(C(F)(F)F)cc1)c1c[nH]c2ccc(-c3ccc4nc(NC(=O)C5CC5)sc4c3)cc12 [Compound 16],10 to 100 nM,10 to 100 nM
O=C(NCc1ccco1)c1c[nH]c2ccc(-c3ccc4nc(NC(=O)C5CC5)sc4c3)cc12 [Compound 17],10 to 100 nM,10 to 100 nM
O=C(NCc1cccs1)c1c[nH]c2ccc(-c3ccc4nc(NC(=O)C5CC5)sc4c3)cc12 [Compound 18],10 to 100 nM,1 to 10 nM
O=C(NCc1cccc(OC(F)(F)F)c1)c1c[nH]c2ccc(-c3ccc4nc(NC(=O)C5CC5)sc4c3)cc12 [Compound 19],10 to 100 nM,1 to 10 nM
O=C(NCc1ccncc1)c1c[nH]c2ccc(-c3ccc4nc(NC(=O)C5CC5)sc4c3)cc12 [Compound 20],≥ 1000 nM,≥ 1000 nM
O=C(NCc1ccccc1C(F)(F)F)c1c[nH]c2ccc(-c3ccc4nc(NC(=O)C5CC5)sc4c3)cc12 [Compound 24],100 to 1000 nM,10 to 100 nM
COc1ccc(CNC(=O)c2c[nH]c3ccc(-c4ccc5nc(NC(=O)C6CC6)sc5c4)cc23)cc1OC [Compound 26],100 to 1000 nM,≥ 1000 nM
O=C(NCc1ccccc1)c1c[nH]c2ccc(-c3ccc4nc(NC(=O)C5CC5)sc4c3)cc12 [Compound 27],,10 to 100 nM
CC(C)(C)c1ccc(CNC(=O)c2c[nH]c3ccc(-c4ccc5nc(NC(=O)C6CC6)sc5c4)cc23)cc1 [Compound 29],100 to 1000 nM,100 to 1000 nM
C[C@H](NC(=O)c1c[nH]c2ccc(-c3cnc(NC(=O)C4CC4)nc3)cc12)c1cccc(F)c1 [Compound 43],≥ 1000 nM,≥ 1000 nM
Cn1cc(C(=O)NCc2cc(F)ccc2F)c2cc(-c3ccc4nc(NC(=O)C5CC5)sc4c3)ccc21 [Compound 54],10 to 100 nM,< 1 nM
C[C@H](NC(=O)c1cn(C)c2ccc(-c3ccc4nc(NC(=O)C5CC5)nn4c3)cc12)c1cccc(F)c1 [Compound 90],100 to 1000 nM,
C[C@H](NC(=O)c1cn(C)c2ccc(-c3ccc4c(NC(=O)C5CC5)n[nH]c4c3)cc12)c1cccc(F)c1 [Compound 110],< 1 nM,
